Reference: patent US20160318866A1, “SUBSTITUTED BIPIPERIDINYL DERIVATIVES” (Bayer Pharma Aktiengesellschaft, priority 2013, published 2016)
Where a name gives a salt, the structure may show the parent alone.

Target: T1, human α2C receptor (Homo sapiens, UniProt P18825)
T1 construct: expressed in transfected cells; host or cells: CHO cells, also recombinantly expressing chimeric G protein Gαqi3 and mitochondrial obelin (mtOb)
T1 sequence (P18825 1-462): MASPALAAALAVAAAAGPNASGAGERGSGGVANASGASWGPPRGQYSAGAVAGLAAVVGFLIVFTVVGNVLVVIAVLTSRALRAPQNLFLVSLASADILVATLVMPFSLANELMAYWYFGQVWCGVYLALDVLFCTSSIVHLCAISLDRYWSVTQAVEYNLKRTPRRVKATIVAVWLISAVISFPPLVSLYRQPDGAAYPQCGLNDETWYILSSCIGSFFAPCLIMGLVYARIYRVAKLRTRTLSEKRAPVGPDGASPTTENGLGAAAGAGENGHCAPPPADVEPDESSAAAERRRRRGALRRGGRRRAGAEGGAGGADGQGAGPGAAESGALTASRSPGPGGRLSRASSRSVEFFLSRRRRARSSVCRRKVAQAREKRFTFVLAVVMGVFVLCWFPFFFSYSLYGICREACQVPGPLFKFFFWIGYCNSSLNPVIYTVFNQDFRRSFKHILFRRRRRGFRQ
Experiment: Antagonism against the adrenoreceptor α2C (luminescence, recombinant CHO cell line)
Type: cell-based
Details: antagonism against adrenoreceptor α2C; noradrenaline 20 nM; tested up to 10 μM; read-out: IC50
Experimental: Antagonism against the adrenoreceptor α1A was tested using a recombinant human α1A receptor CHO cell line which additionally also recombinantly expresses mtAeq (mitochondrial aequorin). Antagonism against the adrenoreceptor α2A was tested using a recombinant human α2A-Gα16 receptor fusion protein CHO cell line (PerkinElmer Life Sciences) which additionally also recombinantly expresses mtAeq. Antagonism against the adrenoreceptor α2B was tested using a recombinant human α2B receptor CHO cell line (PerkinElmer Life Sciences) which additionally also recombinantly expresses mtAeq. Antagonism against the adrenoreceptor α2C was tested using a recombinant human α2C receptor CHO cell line which additionally also recombinantly expresses a chimaric G protein (Gαqi3) and mtOb (mitochondrial obelin).
The cells were cultivated at 37° C. and 5% CO2 in Dulbecco's modified Eagle's Medium/NUT mix F12 with L-glutamine which additionally contains 10% (v/v) inactivated foetal calf serum, 1 mM sodium pyruvate, 0.9 mM sodium bicarbonate, 50 U/ml penicillin, 50 μg/ml streptomycin, 2.5 μg/ml amphotericin B and 1 mg/ml Geneticin. The cells were passaged with enzyme-free Hank's-based cell dissociation buffer. All cell culture reagents used are from Invitrogen (Carlsbad, USA).
Luminescence measurements were carried out on white 384-well microtitre plates. 2000 cells/well were plated in a volume of 25 μl and cultivated for one day at 30° C. and 5% CO2 in cell culture medium with coelenterazine (α2A and α2B: 5 μg/ml; α1a/c and α2C: 2.5 μg/ml). Serial dilutions of the test substances (10 μl) were added to the cells. After 5 minutes, noradrenalinee was added to the cells (35 μl; final concentrations: 20 nM (α1a/c and α2C) or 200 nM (α2A and α2B)), and the emitted light was measured for 50 seconds using a CCD (charge-coupled device) camera (Hamamatsu Corporation, Shizuoka, Japan) in a light-tight box. The test substances were tested up to a maximum concentration of 10 μM. The IC50 values were calculated from the appropriate dose-response curves.

SMILES | IC50 [nM]
CCOC(=O)Cc1ccc(C(=O)N2CCC(N3CCCC(C(=O)OCC)C3)CC2)cc1 (stereo not drawn) [Example 34, 3-(Ethoxycarbonyl)-1-{1-[4-(2-ethoxy-2-oxoethyl)benzoyl]piperidin-4-yl}piperidine trifluoroacetic acid salt] | 86
CC1CCCN(C2CCN(C(=O)c3ccc(C(=O)NC(C)(C)c4ccc(Cl)cc4)cc3)CC2)C1 (stereo not drawn) [Example 77, N-[2-(4-Chlorophenyl)propan-2-yl]-4-[(3-methyl-1,4′-bipiperidin-1′-yl)carbonyl]benzamide trifluoroacetic acid salt] | 54
C[C@@H]1CCCN(C2CCN(C(=O)c3ccc(C(=O)NCc4c(F)cccc4F)cc3)CC2)C1 [Example 88, N-(2,6-Difluorobenzyl)-4-{[(3R)-3-methyl-1,4′-bipiperidin-1′-yl]carbonyl}benzamide trifluoroacetic acid salt] | 11
CCOC(=O)C(C)(C)c1ccc(C(=O)N2CCC(N3CCCC(C)C3)CC2)cc1 (stereo not drawn) [Example 27, 1-{1-[4-(1-Ethoxy-2-methyl-1-oxopropan-2-yl)benzoyl]piperidin-4-yl}-3-methylpiperidine trifluoroacetic acid salt] | 162
CC1CCCN(C2CCN(C(=O)c3ccc(C(C)(C)CO)cc3)CC2)C1 (stereo not drawn) [Example 28, 1-{1-[4-(1-Hydroxy-2-methylpropan-2-yl)benzoyl]piperidin-4-yl}-3-methylpiperidine trifluoroacetic acid salt] | 156
CC1CCCN(C2CCN(C(=O)c3ccc(C(=O)NC(C)(C)c4ccccc4)cc3)CC2)C1 (stereo not drawn) [Example 71, 4-[(3-Methyl-1,4′-bipiperidin-1′-yl)carbonyl]-N-(2-phenylpropan-2-yl)benzamide trifluoroacetic acid salt] | 64
CC(C)(C)OCC1CCCN(C2CCN(C(=O)c3ccc(C(C)(C)O)cc3)CC2)C1 (stereo not drawn) [Example 106, [3-(tert-Butoxymethyl)-1,4′-bipiperidin-1′-yl][4-(2-hydroxypropan-2-yl)phenyl]methanone] | 35
CC(C)(O)c1ccc(C(=O)N2CCC(N3CCCC(COc4cccc(F)c4)C3)CC2)cc1 (stereo not drawn) [Example 108, {3-[(3-Fluorophenoxy)methyl]-1,4′-bipiperidin-1′-yl}[4-(2-hydroxypropan-2-yl)phenyl]methanone] | 112
Cc1ncccc1CNC(=O)c1ccc(C(=O)N2CCC(N3CCC[C@@H](C)C3)CC2)cc1 [Example 95, 4-{[(3R)-3-Methyl-1,4′-bipiperidin-1′-yl]carbonyl}-N-[(2-methylpyridin-3-yl)methyl]benzamide] | 47
CC(C)(O)c1ccc(C(=O)N2CCC(N3CCCC(COC4CC4)C3)CC2)cc1 (stereo not drawn) [Example 118, {3-[(Cyclopropyloxy)methyl]-1,4′-bipiperidin-1′-yl}[4-(2-hydroxypropan-2-yl)phenyl]methanone] | 8
COCC1CCCN(C2CCN(C(=O)c3ccc(C(C)(C)O)cc3)CC2)C1 (stereo not drawn) [Example 58, [4-(2-Hydroxypropan-2-yl)phenyl][3-(methoxymethyl)-1,4′-bipiperidin-1′-yl]methanone] | 25
CC(C)(O)c1ccc(C(=O)N2CCC(N3CCCC(OCC4CC4)C3)CC2)cc1 (stereo not drawn) [Example 128, [3-(Cyclopropylmethoxy)-1,4′-bipiperidin-1′-yl][4-(2-hydroxypropan-2-yl)phenyl]methanone] | 36
CC1CCCN(C2CCN(C(=O)c3ccc(C(C)(C)C)cc3)CC2)C1 (stereo not drawn) [Example 5, (4-tert-Butylphenyl)(3-methyl-1,4′-bipiperidin-1′-yl)methanone] | 99
CC(C)(O)c1ccc(C(=O)N2CCC(N3CCCC(OCC4CCC4)C3)CC2)cc1 (stereo not drawn) [Example 111, [3-(Cyclobutylmethoxy)-1,4′-bipiperidin-1-yl][4-(2-hydroxypropan-2-yl)phenyl]methanone] | 10
Cc1cccnc1CNC(=O)c1ccc(C(=O)N2CCC(C3CCCC(C)C3)CC2)cc1 (stereo not drawn) [Example 74, 4-{[4-(3-Methylcyclohexyl)piperidin-1-yl]carbonyl}-N-[(3-methylpyridin-2-yl)methyl]benzamide trifluoroacetic acid salt] | 155
CCCN(CC1CC1)C(=O)c1ccc(C(=O)N2CCC(N3CCCC(C)C3)CC2)cc1 (stereo not drawn) [Example 51, N-(cyclopropyl-methyl)-4-[(3-methyl-1,4′-bipiperidin-1′-yl)carbonyl]-N-propylbenzamide] | 180
CC1CCCN(C2CCN(C(=O)c3ccc(C(C)(C)C)cc3)CC2)C1 (single isomer, unassigned) [Example 6, (4-tert-Butylphenyl)(3-methyl-1,4′-bipiperidin-1′-yl)methanone, (−)-enantiomer] | 91
CC1CCCN(C2CCN(C(=O)c3ccc(C(=O)NC(C)Cn4cccn4)cc3)CC2)C1 (stereo not drawn) [Example 54, 4-[(3-methyl-1,4′-bipiperidin-1′-yl)carbonyl]-N-[1-(1H-pyrazol-1-yl)propan-2-yl]benzamide] | 199
CC1CCCN(C2CCN(C(=O)c3ccc(C(C)(C)C)c(Cl)c3)CC2)C1 (stereo not drawn) [Example 3, (3-Chloro-4-tert-butylphenyl)(3-methyl-1,4′-bipiperidin-1′-yl)methanone trifluoroacetic acid salt] | 268
COCC1CCCN(C2CCN(C(=O)c3ccc(C(C)(C)C)cc3)CC2)C1 (stereo not drawn) [Example 19, (4-tert-Butylphenyl)[3-(methoxymethyl)-1,4′-bipiperidin-1′-yl]methanone] | 8
CC1CCCN(C2CCN(C(=O)c3ccc(C(C)(C)C(=O)NC(C)(C)C)cc3F)CC2)C1 (stereo not drawn) [Example 65, N-tert-Butyl-2-{3-fluoro-4-[(3-methyl-1,4′-bipiperidin-1′-yl)carbonyl]phenyl}-2-methylpropanamide] | 134
C[C@@H]1CCCN(C2CCN(C(=O)c3ccc(C(=O)NCc4ncc(F)cc4F)cc3)CC2)C1 [Example 82, (R)—N-[(3,5-Difluoropyridin-2-yl)methyl]-4-{[(3R)-3-methyl-1,4′-bipiperidin-1′-yl]carbonyl}benzamide trifluoroacetic acid salt] | 15
CC(NC(=O)c1ccc(C(=O)N2CCC(N3CCC[C@@H](C)C3)CC2)cc1)c1c(F)cccc1F (stereo partly drawn) [Example 87, N-[1-(2,6-Difluorophenyl)ethyl]-4-{[(3R)-3-methyl-1,4′-bipiperidin-1′-yl]carbonyl}benzamide trifluoroacetic acid salt] | 16
CC1CCCN(C2CCN(C(=O)c3ccc(C(=O)N(C)C4CCCCC4)cc3)CC2)C1 (stereo not drawn) [Example 49, N-cyclohexyl-N-methyl-4-[(3-methyl-1,4′-bipiperidin-1′-yl)carbonyl] benzamide] | 348
CC1CCCN(C2CCN(C(=O)c3ccc(C(=O)NC(C)(C)c4ccccc4Cl)cc3)CC2)C1 (stereo not drawn) [Example 78, N-[2-(2-Chlorophenyl)propan-2-yl]-4-[(3-methyl-1,4′-bipiperidin-1′-yl)carbonyl]benzamide trifluoroacetic acid salt] | 24
Cc1cc(C)n(Cc2ccc(C(=O)N3CCC(N4CCCC(C)C4)CC3)cc2)n1 (stereo not drawn) [Example 11, {4-[(3,5-Dimethyl-1H-pyrazol-1-yl)methyl]phenyl}(3-methyl-1,4′-bipiperidin-1′-yl)methanone] | 167
CCC1CCCN(C2CCN(C(=O)c3ccc(C(C)(C)O)cc3)CC2)C1 (single isomer, unassigned; enantiomer 1) [Example 115, [3-Ethyl-1,4′-bipiperidin-1′-yl][4-(2-hydroxypropan-2-yl)phenyl]methanone (enantiomer 1)] | 22
C[C@@H]1CCCN(C2CCN(C(=O)c3ccc(C(=O)NC(C)(C)C)c(Cl)c3)CC2)C1 [Example 100, N-tert-Butyl-2-chloro-4-{[(3R)-3-methyl-1,4′-bipiperidin-1′-yl]carbonyl}benzamide formic acid salt] | 27
CC1CCCN(C2CCN(C(=O)c3ccc(C(C)(C)C)cc3O)CC2)C1 (stereo not drawn) [Example 12, (2-Hydroxy-4-tert-butylphenyl)(3-methyl-1,4′-bipiperidin-1′-yl)methanone] | 87
COc1cc(C(C)(C)C)ccc1C(=O)N1CCC(N2CCCC(C)C2)CC1 (stereo not drawn) [Example 15, (4-tert-Butyl-2-methoxyphenyl)(3-methyl-1,4′-bipiperidin-1′-yl)methanone] | 98
